Read-outs that look alike come from different tables or passages of the source.
Legend:
CDK4 = CDK4 (Homo sapiens (Human), UniProt P11802); experiment: In vitro kinase inhibition, luminescence (ADP-Glo) with retinoblastoma substrate; format: biochemical
CDK1 (cyclin B) = CDK1 (cyclin B) (Homo sapiens (Human), UniProt P06493); experiment: Z'-LYTE kinase assay; format: biochemical
Text: The following equations were used for Z′-LYTE™ Screening Assay Data Analysis.

FMS kinase = FMS kinase (Homo sapiens (Human), UniProt P07333); experiment: LanthaScreen kinase assay (ATP, fluorescent-PolyGT substrate, TR-FRET); format: biochemical
MCF-7 = experiment: Cancer cell proliferation assay, single agent; format: cell-based; settings: Homo sapiens
CDK6 = CDK6 (Homo sapiens (Human), UniProt Q00534); experiment: biochemical; format: biochemical
CDK2 (cyclin A) = CDK2 (cyclin A) (Homo sapiens (Human), UniProt P24941); experiment: Z'-LYTE kinase assay; format: biochemical
Description: IC50 values of compounds against CDK2 (cyclin A) were determined by Z'-LYTETM. […] The following equations were used for Z'-LYTETM Screening Assay Data Analysis.

DU4475 = experiment: Cancer cell proliferation assay, single agent; format: cell-based; settings: Homo sapiens
PI3Kδ kinase = PI3Kδ kinase (Homo sapiens (Human), UniProt O00329); experiment: PI3Kδ kinase ADP-Glo assay (Reaction Biology Corporation)
[1] = MCF7, read-out: IC50 (nM) MCF-7
[2] = DU-4475, read-out: IC50 (nM) DU4475
[3] = DU-4475, DU4475 cells, treated for 24-168 hours, read-out: IC50 (nM) DU4475
[4] = MCF7, MCF-7 cells, treated for 24-168 hours, read-out: IC50 (nM) MCF-7

Sequence of FMS kinase (P07333 20-972): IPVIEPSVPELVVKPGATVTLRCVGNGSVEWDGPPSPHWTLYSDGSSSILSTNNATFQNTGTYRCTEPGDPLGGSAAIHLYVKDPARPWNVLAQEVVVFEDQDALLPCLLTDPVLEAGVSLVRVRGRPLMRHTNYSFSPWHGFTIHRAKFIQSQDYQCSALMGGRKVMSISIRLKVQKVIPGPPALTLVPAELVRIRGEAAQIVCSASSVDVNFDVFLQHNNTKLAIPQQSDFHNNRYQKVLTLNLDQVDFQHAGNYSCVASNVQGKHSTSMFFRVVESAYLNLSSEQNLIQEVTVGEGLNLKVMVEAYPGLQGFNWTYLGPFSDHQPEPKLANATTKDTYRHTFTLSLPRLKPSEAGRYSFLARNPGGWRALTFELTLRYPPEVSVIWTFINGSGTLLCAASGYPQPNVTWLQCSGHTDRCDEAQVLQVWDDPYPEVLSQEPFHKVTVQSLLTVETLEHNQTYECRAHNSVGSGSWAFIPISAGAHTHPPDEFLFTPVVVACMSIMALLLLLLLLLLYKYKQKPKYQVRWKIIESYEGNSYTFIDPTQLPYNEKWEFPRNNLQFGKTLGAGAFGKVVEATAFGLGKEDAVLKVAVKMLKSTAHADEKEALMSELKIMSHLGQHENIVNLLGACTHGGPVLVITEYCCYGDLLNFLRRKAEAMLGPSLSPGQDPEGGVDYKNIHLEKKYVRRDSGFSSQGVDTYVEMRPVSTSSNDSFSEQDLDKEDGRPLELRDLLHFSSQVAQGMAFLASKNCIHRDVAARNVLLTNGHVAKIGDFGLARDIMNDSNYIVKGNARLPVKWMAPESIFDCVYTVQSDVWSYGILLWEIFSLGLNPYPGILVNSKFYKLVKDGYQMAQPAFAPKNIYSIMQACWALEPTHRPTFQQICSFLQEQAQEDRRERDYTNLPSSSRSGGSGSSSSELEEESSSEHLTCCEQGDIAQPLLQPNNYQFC
Sequence of CDK4 (P11802 whole entry): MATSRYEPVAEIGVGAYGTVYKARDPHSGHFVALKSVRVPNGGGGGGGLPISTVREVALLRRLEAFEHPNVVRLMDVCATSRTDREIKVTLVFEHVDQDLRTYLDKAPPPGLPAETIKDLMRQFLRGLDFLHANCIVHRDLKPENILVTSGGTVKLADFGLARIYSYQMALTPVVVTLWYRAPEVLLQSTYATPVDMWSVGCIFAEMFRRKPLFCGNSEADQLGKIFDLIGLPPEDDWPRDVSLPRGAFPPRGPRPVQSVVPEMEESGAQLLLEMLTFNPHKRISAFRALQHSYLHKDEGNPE
Sequence of CDK4 (P24385 whole entry partner): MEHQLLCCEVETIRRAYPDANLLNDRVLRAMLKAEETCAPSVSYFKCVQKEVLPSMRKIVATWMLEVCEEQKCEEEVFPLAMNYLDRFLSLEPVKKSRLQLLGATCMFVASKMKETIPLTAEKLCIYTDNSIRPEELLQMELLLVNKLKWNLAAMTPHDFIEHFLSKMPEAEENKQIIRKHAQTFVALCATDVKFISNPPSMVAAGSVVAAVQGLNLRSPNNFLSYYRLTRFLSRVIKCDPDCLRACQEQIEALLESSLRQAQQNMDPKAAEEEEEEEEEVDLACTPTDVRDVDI
Sequence of PI3Kδ kinase (O00329 whole entry): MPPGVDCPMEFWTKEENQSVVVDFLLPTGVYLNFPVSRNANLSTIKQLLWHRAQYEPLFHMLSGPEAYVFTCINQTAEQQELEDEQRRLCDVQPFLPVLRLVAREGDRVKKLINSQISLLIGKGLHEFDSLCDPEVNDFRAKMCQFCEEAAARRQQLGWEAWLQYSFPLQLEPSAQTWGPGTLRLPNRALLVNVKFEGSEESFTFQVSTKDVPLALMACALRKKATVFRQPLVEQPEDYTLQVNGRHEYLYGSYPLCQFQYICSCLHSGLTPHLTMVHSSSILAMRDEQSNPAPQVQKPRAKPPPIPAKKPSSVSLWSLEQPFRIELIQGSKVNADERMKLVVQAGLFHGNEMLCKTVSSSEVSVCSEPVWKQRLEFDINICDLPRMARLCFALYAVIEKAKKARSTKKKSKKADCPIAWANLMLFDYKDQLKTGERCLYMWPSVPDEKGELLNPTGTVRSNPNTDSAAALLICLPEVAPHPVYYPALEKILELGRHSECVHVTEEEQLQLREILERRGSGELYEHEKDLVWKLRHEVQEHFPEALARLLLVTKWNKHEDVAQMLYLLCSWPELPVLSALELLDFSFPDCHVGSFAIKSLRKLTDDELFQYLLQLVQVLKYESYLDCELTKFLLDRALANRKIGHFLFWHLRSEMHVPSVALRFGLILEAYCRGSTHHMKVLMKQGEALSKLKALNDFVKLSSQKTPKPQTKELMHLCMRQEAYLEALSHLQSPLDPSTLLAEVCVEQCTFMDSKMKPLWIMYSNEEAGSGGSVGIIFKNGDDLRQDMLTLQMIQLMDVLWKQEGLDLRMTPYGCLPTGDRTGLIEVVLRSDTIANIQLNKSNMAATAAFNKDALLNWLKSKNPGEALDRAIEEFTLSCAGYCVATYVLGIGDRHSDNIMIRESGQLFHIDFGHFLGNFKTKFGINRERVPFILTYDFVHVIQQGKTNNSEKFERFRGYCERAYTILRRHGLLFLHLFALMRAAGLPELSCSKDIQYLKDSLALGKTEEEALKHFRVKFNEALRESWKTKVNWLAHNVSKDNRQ
Sequence of PI3Kδ kinase (P27986 whole entry partner): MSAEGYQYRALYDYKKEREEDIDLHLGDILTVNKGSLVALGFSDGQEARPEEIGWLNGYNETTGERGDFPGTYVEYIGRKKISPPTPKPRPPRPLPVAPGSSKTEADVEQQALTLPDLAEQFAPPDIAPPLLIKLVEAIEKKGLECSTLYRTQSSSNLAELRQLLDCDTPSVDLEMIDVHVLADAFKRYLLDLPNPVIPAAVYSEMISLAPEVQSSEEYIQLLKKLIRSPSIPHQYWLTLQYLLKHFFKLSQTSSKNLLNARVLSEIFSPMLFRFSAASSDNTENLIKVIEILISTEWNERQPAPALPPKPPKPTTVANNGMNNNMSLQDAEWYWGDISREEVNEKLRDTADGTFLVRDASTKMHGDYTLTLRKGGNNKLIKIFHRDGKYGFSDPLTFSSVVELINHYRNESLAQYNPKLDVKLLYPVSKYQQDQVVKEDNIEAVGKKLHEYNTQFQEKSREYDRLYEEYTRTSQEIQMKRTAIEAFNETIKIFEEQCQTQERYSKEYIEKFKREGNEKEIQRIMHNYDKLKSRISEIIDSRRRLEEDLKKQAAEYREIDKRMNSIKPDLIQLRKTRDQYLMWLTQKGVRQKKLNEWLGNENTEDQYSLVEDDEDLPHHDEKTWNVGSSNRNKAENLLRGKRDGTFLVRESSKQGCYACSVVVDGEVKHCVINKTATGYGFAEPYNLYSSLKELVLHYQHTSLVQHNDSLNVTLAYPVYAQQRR
Sequence of CDK1 (cyclin B) (P06493 whole entry): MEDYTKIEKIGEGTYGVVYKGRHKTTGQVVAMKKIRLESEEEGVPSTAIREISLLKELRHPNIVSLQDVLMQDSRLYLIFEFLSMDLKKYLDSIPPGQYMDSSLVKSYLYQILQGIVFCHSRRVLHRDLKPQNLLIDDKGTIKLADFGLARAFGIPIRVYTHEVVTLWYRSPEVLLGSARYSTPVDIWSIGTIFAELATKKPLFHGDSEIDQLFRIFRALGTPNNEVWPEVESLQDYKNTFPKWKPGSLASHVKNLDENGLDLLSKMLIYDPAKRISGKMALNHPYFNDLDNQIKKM
Sequence of CDK1 (cyclin B) (P14635 whole entry partner): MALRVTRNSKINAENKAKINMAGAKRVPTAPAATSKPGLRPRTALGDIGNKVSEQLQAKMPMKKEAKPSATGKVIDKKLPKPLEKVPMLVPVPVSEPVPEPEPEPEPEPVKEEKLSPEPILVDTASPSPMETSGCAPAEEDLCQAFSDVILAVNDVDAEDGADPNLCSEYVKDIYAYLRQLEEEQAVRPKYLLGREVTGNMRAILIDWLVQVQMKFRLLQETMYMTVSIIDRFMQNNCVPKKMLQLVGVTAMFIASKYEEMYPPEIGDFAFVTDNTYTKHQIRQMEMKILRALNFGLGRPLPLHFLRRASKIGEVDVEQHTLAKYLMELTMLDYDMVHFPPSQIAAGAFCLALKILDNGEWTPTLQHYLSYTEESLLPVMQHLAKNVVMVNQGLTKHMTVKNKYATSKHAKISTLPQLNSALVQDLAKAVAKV

| Structure (SMILES) | IC50 (CDK4) | IC50 (CDK1 (cyclin B)) | IC50 (FMS kinase) | IC50 (MCF-7; [1]) | IC50 (CDK6) | IC50 (CDK2 (cyclin A)) | IC50 (DU4475; [2]) | IC50 (PI3Kδ kinase; read-out: PI3Kδ IC50) | IC50 (DU4475; [3]) | IC50 (MCF-7; [4]) | IC50 (PI3Kδ kinase) |
| --- | --- | --- | --- | --- | --- | --- | --- | --- | --- | --- | --- |
| CC(C)CN1CCOc2c(F)cc(-c3nc(Nc4ccc(C5CCN(C)CC5)cn4)ncc3F)cc21 [Compound 479, 5-fluoro-4-(8-fluoro-4-isobutyl-3,4-dihydro-2H-benzo[b][1,4]oxazin-6-yl)-N-(5-(1-methylpiperidin-4-yl)pyridin-2-yl)pyrimidin-2-amine] | 2.5 nM | 213 nM | 2600 nM | 240 nM | 5 nM | 44 nM |  |  |  |  |  |
| Fc1cnc(Nc2ccc(N3CCOCC3)cn2)nc1-c1cc(F)c2c(c1)N(C1CCC1)CCO2 [Compound 487, 4-(4-cyclobutyl-8-fluoro-3,4-dihydro-2H-benzo[b][1,4]oxazin-6-yl)-5-fluoro-N-(5-morpholinopyridin-2-yl)pyrimidin-2-amine] | 55 nM |  | > 5000 nM | 615 nM | 112 nM |  | 2170 nM | > 50000 nM |  |  |  |
| CN1CCC(c2ccc(Nc3ncc(F)c(-c4cc(F)c5c(c4)N(C4CCCC4)CCO5)n3)cc2F)CC1 [Compound 471, 4-(4-cyclopentyl-8-fluoro-3,4-dihydro-2H-benzo[b][1,4]oxazin-6-yl)-5-fluoro-N-(3-fluoro-4-(1-methylpiperidin-4-yl)phenyl)pyrimidin-2-amine] | 10 nM |  | 454 nM | 45 nM | 53 nM |  | 110 nM | 1990 nM |  |  |  |
| Fc1cnc(Nc2ccc3c(n2)CCNC3)nc1-c1cc(F)c2c(c1)N(C1CCCC1)CCO2 [Compound 509, N-(4-(4-cyclopentyl-8-fluoro-3,4-dihydro-2H-benzo[b][1,4]oxazin-6-yl)-5-fluoropyrimidin-2-yl)-5,6,7,8-tetrahydro-1,6-naphthyridin-2-amine] | 5 nM | 78 nM |  |  | 10 nM | 33 nM |  |  | 1480 nM | 1090 nM |  |
| CC(C)N1CCOc2c(F)cc(-c3nc(Nc4ccc(S(=O)(=O)NCCN(C)C)cc4)ncc3F)cc21 [Compound 513, N-(2-(dimethylamino)ethyl)-4-((5-fluoro-4-(8-fluoro-4-isopropyl-3,4-dihydro-2H-benzo[b][1,4]oxazin-6-yl)pyrimidin-2-yl)amino)benzenesulfonamide] | 2 nM | < 1 nM |  |  | 8 nM | 3 nM |  |  | 50 nM | 17 nM |  |
| CC(C)N1CCOc2c(F)cc(-c3nc(Nc4ccc(N5CCN(C)CC5=O)cn4)ncc3F)cc21 [Compound 472, 1-(6-((5-fluoro-4-(8-fluoro-4-isopropyl-3,4-dihydro-2H-benzo[b][1,4]oxazin-6-yl)pyrimidin-2-yl)amino)pyridin-3-yl)-4-methylpiperazin-2-one] | 2.5 nM |  |  | 30 nM |  |  | 570 nM |  |  |  | 29100 nM |
| CC(C)N1CCOc2c(F)cc(-c3nc(Nc4ccc(N5CCC(C)(O)CC5)cn4)ncc3F)cc21 [Compound 484, 1-(6-((5-fluoro-4-(8-fluoro-4-isopropyl-3,4-dihydro-2H-benzo[b][1,4]oxazin-6-yl)pyrimidin-2-yl)amino)pyridin-3-yl)-4-methylpiperidin-4-ol] |  |  | > 5000 nM |  |  |  |  | > 50000 nM | 2480 nM | 1340 nM |  |
| CC(C)N1CCOc2c(F)cc(-c3nc(Nc4cnn(C5CCN(C)CC5)c4)ncc3F)cc21 [Compound 497, 5-fluoro-4-(8-fluoro-4-isopropyl-3,4-dihydro-2H-benzo[b][1,4]oxazin-6-yl)-N-(1-(1-methylpiperidin-4-yl)-1H-pyrazol-4-yl)pyrimidin-2-amine] |  | 85 nM |  | 40 nM |  |  | 95 nM |  |  |  |  |
| COCCNS(=O)(=O)c1ccc(Nc2ncc(F)c(-c3cc(F)c4c(c3)N(C(C)C)CCO4)n2)cc1 [Compound 523, 4-(5-fluoro-4-(8-fluoro-4-isopropyl-3,4-dihydro-2H-benzo[b][1,4]oxazin-6-yl)pyrimidin-2-ylamino)-N-(2-methoxyethyl)benzenesulfonamide] | 20 nM | 21 nM |  |  | 51 nM | 74 nM |  |  | 75 nM | 55 nM |  |
| CC(C)CN1CCOc2c(F)cc(-c3nc(Nc4ccc(N5CCC(O)CC5)cn4)ncc3F)cc21 [Compound 488, 1-(6-((5-fluoro-4-(8-fluoro-4-isobutyl-3,4-dihydro-2H-benzo[b][1,4]oxazin-6-yl)pyrimidin-2-yl)amino)pyridin-3-yl)piperidin-4-ol] | 101 nM |  | > 5000 nM | 830 nM | 200 nM |  | 2560 nM | > 50000 nM |  |  |  |
| CC(C)N1CCOc2c(F)cc(-c3nc(Nc4ccc(N5CCC(CN)CC5)cn4)ncc3F)cc21 [Compound 518, N-(5-(4-(aminomethyl)piperidin-1-yl)pyridin-2-yl)-5-fluoro-4-(8-fluoro-4-isopropyl-3,4-dihydro-2H-benzo[b][1,4]oxazin-6-yl)pyrimidin-2-amine] | 4 nM | 1190 nM |  |  | 28 nM | 560 nM | 1330 nM |  |  | 1020 nM |  |
| CC(C)N1CCOc2c(F)cc(-c3nc(Nc4cc(C5CCN(C)CC5)n[nH]4)ncc3F)cc21 [Compound 499, 5-fluoro-4-(8-fluoro-4-isopropyl-3,4-dihydro-2H-benzo[b][1,4]oxazin-6-yl)-N-(3-(1-methylpiperidin-4-yl)-1H-pyrazol-5-yl)pyrimidin-2-amine] |  | 69 nM |  |  |  | 19 nM | 345 nM |  |  | 175 nM |  |
| CC(C)N1CCOc2c(F)cc(-c3nc(Nc4ccc(N5CCN6CCCC6C5)c(F)c4)ncc3F)cc21 (centres unmarked) [Compound 473, 5-fluoro-N-(3-fluoro-4-(hexahydropyrrolo[1,2-a]pyrazin-2(1H)-yl)phenyl)-4-(8-fluoro-4-isopropyl-3,4-dihydro-2H-benzo[b][1,4]oxazin-6-yl)pyrimidin-2-amine] |  |  | 7 nM |  |  |  |  | 3170 nM | 55 nM | 30 nM |  |
| CC(C)CN1CCOc2c(F)cc(-c3nc(Nc4ccc(N5CCOCC5)cn4)ncc3F)cc21 [Compound 489, 5-fluoro-4-(8-fluoro-4-isobutyl-3,4-dihydro-2H-benzo[b][1,4]oxazin-6-yl)-N-(5-morpholinopyridin-2-yl)pyrimidin-2-amine] | 90 nM |  | > 5000 nM |  | 159 nM |  | 4500 nM | > 50000 nM |  | 1820 nM |  |
| CC(C)CN1CCOc2c(F)cc(-c3nc(Nc4ccc(C5CCN(C)CC5)c(F)c4)ncc3F)cc21 [Compound 476, 5-fluoro-N-(3-fluoro-4-(1-methylpiperidin-4-yl)phenyl)-4-(8-fluoro-4-isobutyl-3,4-dihydro-2H-benzo[b][1,4]oxazin-6-yl)pyrimidin-2-amine] | 4 nM |  | 174 nM |  | 25 nM |  | 135 nM | 703 nM |  | 65 nM |  |
| CC(C)N1CCOc2c(F)cc(-c3nc(Nc4ccc(S(N)(=O)=O)cc4)ncc3F)cc21 [Compound 507, 4-((5-fluoro-4-(8-fluoro-4-isopropyl-3,4-dihydro-2H-benzo[b][1,4]oxazin-6-yl)pyrimidin-2-yl)amino)benzenesulfonamide] | 6 nM | 1.3 nM |  |  | 13 nM | 3.2 nM |  |  | 20 nM | < 5 nM |  |
| CC(C)CN1CCOc2c(F)cc(-c3nc(Nc4ccc(N5CCC(N(C)C)CC5)c(F)c4)ncc3F)cc21 [Compound 480, N-(4-(4-(dimethylamino)piperidin-1-yl)-3-fluorophenyl)-5-fluoro-4-(8-fluoro-4-isobutyl-3,4-dihydro-2H-benzo[b][1,4]oxazin-6-yl)pyrimidin-2-amine] | 5.5 nM |  | 82 nM | 190 nM | 14 nM |  | 435 nM | 1160 nM |  |  |  |
| CC(C)N1CCOc2c(F)cc(-c3nc(Nc4ccc5c(c4)C(=O)NCC5)ncc3F)cc21 [Compound 502, 7-((5-fluoro-4-(8-fluoro-4-isopropyl-3,4-dihydro-2H-benzo[b][1,4]oxazin-6-yl)pyrimidin-2-yl)amino)-3,4-dihydroisoquinolin-1(2H)-one] | 12 nM | 69 nM |  |  | 28 nM | 74 nM |  |  | 405 nM | 435 nM |  |
| OC1CCN(c2ccc(Nc3ncc(F)c(-c4cc(F)c5c(c4)N(C4CCC4)CCO5)n3)nc2)CC1 [Compound 486, 1-(6-((4-(4-cyclobutyl-8-fluoro-3,4-dihydro-2H-benzo[b][1,4]oxazin-6-yl)-5-fluoropyrimidin-2-yl)amino)pyridin-3-yl)piperidin-4-ol] | 16 nM |  | > 5000 nM | 325 nM | 41 nM |  | 1450 nM | > 50000 nM |  |  |  |
| CC(C)N1CCOc2c(F)cc(-c3nc(Nc4cc(C5CCN(C)CC5)no4)ncc3F)cc21 [Compound 495, N-(5-fluoro-4-(8-fluoro-4-isopropyl-3,4-dihydro-2H-benzo[b][1,4]oxazin-6-yl)pyrimidin-2-yl)-3-(1-methylpiperidin-4-yl)isoxazol-5-amine] |  | 5 nM |  | 110 nM |  | 2 nM | 310 nM |  |  |  |  |

— patent US11174252B2, “Heterocyclic compounds as kinase inhibitors” (priority 2018, dated 2021)
